Reference: patent US11903926B1, “Non-hormonal treatment of hot flashes” (priority 2012, dated 2024)
Read-outs that look alike come from different tables or passages of the source.

Legend:
[1] = system: women with dramatic vasomotor hot flashes and sleep disruption; assay: Clinical study of six women with vasomotor hot flashes and sleep disruption, symptoms graded 0-4; type: in vivo; conditions: for effect on vasomotor / hot flash symptoms (in words) / effect on sleep (in words): six women, agent alone; for effect on vasomotor / hot flash symptoms (in words): versus untreated; for Hot Flash Severity: grade 0-4 (duration), average of six women; for Hot Flash Frequency: end of treatment period (up to four weeks), ropinirole 4 mg, tizanidine 4 mg, clonidine 0.1 mg, rotigotine 1 mg, pramipexole 1.5 mg, chlorpromazine 25 mg, haloperidol 1 mg, venlafaxine 75 mg, paroxetine 20 mg, gabapentin 300 mg, pregabilin 50 mg
Experimental: Patients were on each regimen at the doses cited for up to four weeks.
Symptoms were evaluated on a scale from 0 to 4, with 0 being not affected, 1 being mild, 2 being moderate, 3 being severe, and 4 being a very severe expression of either vasomotor symptom frequency, severity, sweating, falling asleep and waking during the night for each patient and evaluated at the end of the treatment period. The findings reported are based on an average of the reported symptoms of the six women studied.
Specifically, regarding hot flash frequency, evaluation was based upon the number of hot flashes per day. The frequency of hot flashes was graded on a scale of 0-4, with 0 as none detected, 1 as 1-4/day (mild), 2 as 5-8/day (moderate), 3 as 9-12/day (severe), and 4 as more than 12/day (very severe).
The severity of the hot flashes, reflecting hot flash duration, was also graded on a scale of 0-4, with 0 being not detected, 1 being mild (less than 1 minute), 2 moderate (1-2 minutes), 3 severe (2-3 minutes), and 4 very severe (greater than 4 minutes). This evaluation reflects the duration and intensity as rated by the individual.
The sweating response was graded on a scale of 0-4 as well, with 0 being not detected, 1 being mild (minimally moist skin), 2 moderate (moisture of the skin), 3 severe (noticeable perspiration, hair, ears, neck, chest), and 4 very severe (soaking sweat).
Falling asleep was also graded on a scale of 0-4, with 0 being no issue (less than 15 minutes), 1 being mild (15-20 minutes), 2 moderate (20-40 minutes), 3 severe (40-60 minutes), and 4 very severe (greater than 60 minutes).
Wakings were graded on a scale of 0-4 as well, with 0 being not detected, 1 being mild (1-5 wakings/night), 2 moderate (5-10 wakings/night), 3 severe (10-15 wakings/night), and 4 very severe (greater than 15 wakings/night).
The D2 receptor family (D2, D3 or D4) agonists ropinirole, rotigotine and pramipexole were examined, and contrasted with D2 receptor family antagonists chlorpromazine or haloperidol. Ropinirole and pramipexole were evaluated alone and with either alpha-2-adrenergic agonist tizanidine or clonidine.
Venlafaxine, paroxetine, gabapentin, and pregabilin were also evaluated in comparison with tizanidine.

[2] = system: women with menopausal symptoms including hot flashes; conditions: for hot flashes under existing medication: already treated for neuropathic pain and depression; for benefit in sleep cycle: standard sedative hypnotics for insomnia
Experimental: The patients were treated by escalating the dose of ropinirole to 4 mg, testing the hypothesis of a dopaminergically regulated pathway within the central nervous system which impacts hot flashes.
Therefore, the initial dose provided was 1 mg at bedtime, and the dose was raised as needed, every fourth day, to a maximum of 8 mg, if needed, usually at bedtime.
Safety monitoring included making certain there were no issues with liver function, low blood pressure or unusual dreams as this was accomplished. Tizanidine could, if needed, be dosed again during the night without causing a morning “hangover” effect providing there was a four hour sleep window available.
Ropinirole titration was initiated with 0.25 mg at bedtime, and if tolerated, by escalating the dose by 0.25 mg every fourth day to a maximum of 1 mg (i.e., 0.25 mg, 0.50 mg, 0.75 mg, 1 mg), until there was reduction in both the frequency and severity of hot flashes. If higher doses were needed, then both 1 mg, or later 2 mg and both 1 and 2 mg ropinirole tablets were used along with the continued titration by 0.25 mg steps every fourth day until a maximum of 4 mg was reached.

[3] = system: women with menopausal vasomotor symptoms and sleep disruption; assay: Clinical study of eight women with menopausal vasomotor symptoms and sleep disruption, symptoms graded 1-4; type: in vivo; conditions: for effect on vasomotor symptoms (in words) / effect on sleep (in words): eight women; for effect on sleep (in words): agent alone; for Hot Flash Frequency / Sweating / Wakings / Falling Asleep / Hot Flash Severity: grade 1-4, average of eight women, ropinirole 4 mg, tizanidine 4 mg, ramelteon 8 mg; for Hot Flash Frequency: at bedtime for at least four weeks; for Hot Flash Frequency / Falling Asleep / Hot Flash Severity: untreated = 4; for Sweating / Wakings / Falling Asleep / Hot Flash Severity: at least four weeks; for Sweating / Wakings: untreated = 3
Experimental: Patients were on each regimen at the doses cited for at least four weeks.
Symptoms were evaluated on a scale from 1 to 4, with 1 being mild, 2 being moderate, 3 being severe, and 4 being a very severe expression of either vasomotor symptom frequency, severity, sweating, falling asleep and wakings during the night were evaluated for each patient and evaluate at the end of the treatment period. The findings were based on an average of the reported symptoms of the eight women studied.
Specifically with respect to hot flash frequency, evaluation was based upon the number of hot flashes per day. The frequency of the hot flashes was graded on a scale of 1-4, with 1 as 1-4/day (mild), 2 as 5-8/day (moderate), 3 as 9-12/day (severe), and 4 as more than 12/day (very severe).
The severity of the hot flashes was graded on a scale of 1-4, with 1 being mild (less than 1 minute), 2 moderate (1-2 minutes), 3 severe (2-3 minutes), and 4 very severe (greater than 4 minutes). This evaluation reflects the duration and intensity as rated by the individual.
The sweating response was graded on a scale of 1-4, with 1 being mild (minimally moist skin), 2 moderate (moisture on skin), 3 severe (noticeable perspiration, hair, ears, neck, chest), and 4 very severe (soaking sweat).
Falling asleep was graded on a scale of 1-4, with 1 being mild (15-20 minutes), 2 moderate (20-40 minutes), 3 severe (40-60 minutes), and 4 very severe (greater than 60 minutes).
Wakings were graded on a scale of 1-4, with 1 being mild (1-5 wakings/night), 2 moderate (5-10 wakings/night), 3 severe (10-15 wakings/night), and 4 very severe (greater than 15 wakings/night).

[4] = system: hot flashes, including vasomotor symptoms of menopause; assay: Observed activity of D2 family agonists tested in controlling hot flashes; type: in vivo; conditions: D2 family members tested to date
[5] = up to four weeks, untreated = 3
[6] = grade 0-4, average of six women, untreated = 3
[7] = patients of the case studies, ropinirole escalated from 0.25 mg to 4 mg at bedtime

CN(C)CCCN1c2ccccc2Sc2ccc(Cl)cc21 [Chlorpromazine, chlorpromazine]
effect on vasomotor / hot flash symptoms (in words) [1]: aggravated menopausal symptoms

Fc1ccc([C@@H]2CCNC[C@H]2COc2ccc3c(c2)OCO3)cc1 [Paroxetine, paroxetine]
effect on vasomotor / hot flash symptoms (in words) [1]: reduced hot flash symptoms over untreated patients

O=C(CCCN1CCC(O)(c2ccc(Cl)cc2)CC1)c1ccc(F)cc1 [Haloperidol, haloperidol]
effect on vasomotor / hot flash symptoms (in words) [1]: aggravated menopausal symptoms

Clc1ccc2nsnc2c1NC1=NCCN1 [Tizanidine, tizanidine]
sleep ([2]; patient one, tizanidine 8 mg at bedtime): facilitate sleep, which it did | sleep ([2]; patient three, tizanidine 1 mg raised up to 8 mg at bedtime): able to sleep through the night | effect on sleep (in words) [1]: impressive effect on sleep | effect on vasomotor / hot flash symptoms (in words) [1]: very modest reduction in vasomotor symptoms | effect on vasomotor symptoms (in words) [3]: very modest reduction in vasomotor symptoms | effect on sleep (in words) [3]: more impressive effect on sleep | Hot Flash Frequency [3]: 3 (3 as 9-12/day (severe)) | Sweating [3]: 3 | Wakings [3]: 2 (2 moderate (5-10 wakings/night)) | Falling Asleep [3]: 2 (2 moderate (20-40 minutes)) | Hot Flash Severity [3]: 3 (3 severe (2-3 minutes))

CCC(=O)NCC[C@@H]1CCc2ccc3c(c21)CCO3 [Ramelteon, ramelteon]
effect on vasomotor symptoms (in words) [3]: no impact on vasomotor symptoms | effect on sleep (in words) [3]: only a limited impact on sleep | Hot Flash Frequency [3]: 4 (4 as more than 12/day (very severe)) | Sweating [3]: 3 | Wakings [3]: 3 (3 severe (10-15 wakings/night)) | Falling Asleep [3]: 3 (3 severe (40-60 minutes)) | Hot Flash Severity [3]: 4 (4 very severe (greater than 4 minutes))

c1cnc(N2CCN(Cc3ccc4c(c3)OCO4)CC2)nc1 [piribedil]
activity in controlling hot flashes [4]: unique activity

COc1ccc(C(CN(C)C)C2(O)CCCCC2)cc1 (stereo not shown) [Venlafaxine]
hot flashes under existing medication ([2]; patient two): developed these hot flash symptoms despite those medications | effect on vasomotor / hot flash symptoms (in words) [1]: reduced hot flash symptoms over untreated patients

NCC1(CC(=O)O)CCCCC1 [Gabapentin, gabapentin]
hot flashes under existing medication ([2]; patient two): developed these hot flash symptoms despite those medications | effect on vasomotor / hot flash symptoms (in words) [1]: reduced hot flash symptoms over untreated patients

CCCN(CCc1cccs1)[C@H]1CCc2c(O)cccc2C1 [Rotigitine, rotigotine]
Hot Flash Severity [1, 5]: 0 | Hot Flash Frequency [1, 6]: 0 | Falling Asleep ([1]; grade 0-4, average of six women, up to four weeks, untreated = 2): 0 (0 being no issue (less than 15 minutes)) | Sweating ([1]; grade 0-4, average of six women, up to four weeks, untreated = 3): 0 | Wakings ([1]; grade 0-4, average of six women, up to four weeks, untreated = 4): 1 (1 being mild (1-5 wakings/night)) | effect on sleep (in words) [1]: limited impact on sleep | effect on vasomotor / hot flash symptoms (in words) [1]: notable reduction in frequency and severity of vasomotor symptoms | activity in controlling hot flashes [4]: unique activity

CC(C)C[C@H](CN)CC(=O)O [Pregabilin, pregabalin]
effect on vasomotor / hot flash symptoms (in words) [1]: reduced hot flash symptoms over untreated patients

CCN(C(C)=O)c1cccc(-c2ccnc3c(C#N)cnn23)c1 [zaleplon]
benefit in sleep cycle ([2]; patient three): no significant benefit in sleep cycle

CCCN(CCC)CCc1cccc2c1CC(=O)N2 [Ropinirole, ropinirole]
side effects ([2]; patient one, ropinirole 4 mg daily at bedtime with tizanidine 8 mg): without side effects | vasomotor symptoms (hot flashes) ([2]; patient one, ropinirole 4 mg daily at bedtime with tizanidine 8 mg at bedtime, 15-20 hot flashes per day before): totally eliminated the vasomotor symptoms (hot flashes) | hot flashes on re-administration after removal ([2]; patient three, ropinirole removed (symptoms returned) and re-administered at 4 mg): the hot flashes once again disappeared | side effects ([2]; patient two, ropinirole 4 mg at bedtime with tizanidine 8 mg): without untoward side effects | frequency and severity of hot flashes ([2]; patient two, ropinirole 4 mg at bedtime with tizanidine 8 mg at bedtime, 10-15 hot flashes per day before): complete resolution of the frequency and severity of the hot flashes | effect on hot flashes of menopause [2, 7]: dramatic shutdown of previously intolerable hot flashes of menopause | side effects [2, 7]: without side effects | Hot Flash Severity [1, 5]: 0 | Hot Flash Frequency [1, 6]: 0 | effect on sleep (in words) [1]: limited impact on sleep | effect on vasomotor / hot flash symptoms (in words) [1]: notable reduction in frequency and severity of vasomotor symptoms | effect on vasomotor symptoms (in words) [3]: notable, but incomplete reduction in frequency and severity of vasomotor symptoms | effect on sleep (in words) [3]: limited impact on sleep | Hot Flash Frequency [3]: 1 (1 as 1-4/day (mild)) | Sweating [3]: 1 | Wakings [3]: 3 (3 severe (10-15 wakings/night)) | Falling Asleep [3]: 3 (3 severe (40-60 minutes)) | Hot Flash Severity [3]: 1 (1 being mild (less than 1 minute)) | activity in controlling hot flashes [4]: unique activity

CCCN[C@H]1CCc2nc(N)sc2C1 [Pramipexole]
Hot Flash Severity [1, 5]: 0 | Hot Flash Frequency [1, 6]: 0

CN1C(=O)C(O)N=C(c2ccccc2)c2cc(Cl)ccc21 (stereo not shown) [temazepam]
benefit in sleep cycle ([2]; patient three): no significant benefit in sleep cycle

CC(C)(C#N)c1cc(Cn2cncn2)cc(C(C)(C)C#N)c1 [anastrozole]
effect on hot flashes (side effect of aromatase inhibitor) ([2]; patient three, anastrozole 1 mg daily): exacerbated the hot flashes

O=C1CN=C(c2ccccc2Cl)c2cc([N+](=O)[O-])ccc2N1 [clonazepam]
benefit in sleep cycle ([2]; patient three): no significant benefit in sleep cycle

Cc1ccc(-c2nc3ccc(C)cn3c2CC(=O)N(C)C)cc1 [zolpidem]
benefit in sleep cycle ([2]; patient three): no significant benefit in sleep cycle

Clc1cccc(Cl)c1N=C1NCCN1 [Clonidine, clonidine]
hot flashes under existing medication ([2]; patient two): developed these hot flash symptoms despite those medications | effect on sleep (in words) [1]: impressive effect on sleep | effect on vasomotor / hot flash symptoms (in words) [1]: very modest reduction in vasomotor symptoms
